{"source": "patent US5698590A", "about": "“Prostaglandin derivatives” (Ono Pharmaceutical Co., Ltd., priority 1995, dated 1997)", "key": {"[1]": {"assay": "solubility of comparative compound", "assay_type": "physicochemical", "details": "administration without solubilizer was impossible"}, "blood pressure": {"test_system": "blood pressure", "assay": "hypotensive effect in anesthetized rats (maximum hypotensive activity)", "assay_type": "in vivo, Male rats", "details": "for Hypotensive effect: Maximum hypotension on dose (A): at dose (A) required to obtain AUC = 771; for Hypotensive effect: Maximum hypotension on dose (A) / Hypotensive effect: Maximum hypotension: rat; for Hypotensive effect: Maximum hypotension: injection via jugular vein; for Hypotensive effect: Relative activity (X): relative to comparative compound = 1, at dose (A)", "procedure": "(§1) Male rats weighing 200-350 g were anesthetized with urethane (25% urethane, 6 ml/kg, s.c.). The carotid artery and jugular vein were cannulated with polyethylene tubes for measurement of blood pressure and for drug injection, respectively. Blood pressure was obtained with a disposable pressure transducer kit (Spectramed, Ltd) and recorded with a recticoder (model RJG-4128, Nihon kohden, Ltd). Also, blood flow was monitored as cutaneous blood flow of the dorsum pedis using an attachment-type laser-Doppler flowmeter (model ALF21, Advance, Ltd). Measurements were taken until the values recovered to the level observed before injection of drugs. Injection time was about 10 seconds. The hypotensive effect and blood flow increasing effect were calculated as the maximum hypotensive activity (mmHg) and the area under the curve (AUC) after injection of drugs, respectively.\n(§2) The results were represented by the dose required to obtain an effective increase in blood flow (main effect), and by the hypotensive effect (side effect) at the same dose.\n(§3) The compounds of the present invention were administered in the form of liposome formulations (as prepared in Example 3 below). […] The solubility of this comparative compound was very low; thus, administration without solubilizer was impossible.\n(§4) The dry lipid film was dispersed into a 10% maltose solution (3 ml) by using a vortex mixer (type S-100, Taiyokagaku Inc.) and an aqueous suspension with a drug concentration of 1, 3, 10, or 30 μg/ml was obtained. The obtained multilamellar liposome solutions (3 ml) were transferred into plastic tubes and then sonicated with a probe sonicator (type: SONIFIER cell disruptor 200, Branson) at the condition of 50% pulsed operation for 15 minutes. The sonicated solutions were passed through a membrane filter with a pore diameter of 0.2 μm to remove titanium particles and liposome formulations with a mean diameter of 40-70 nm were formed."}, "[2]": {"test_system": "cutaneous blood flow of the dorsum pedis", "assay": "blood flow increasing effect in anesthetized rats (laser-Doppler flowmetry, AUC)", "assay_type": "in vivo, Male rats", "design": "Blood flow increasing effect: Total AUC: unit not given here", "details": "for Blood flow increasing effect: Total AUC / Blood flow increasing effect: Dose (A) required to obtain AUC = 771: rat; for Blood flow increasing effect: Total AUC: injection via jugular vein; for Blood flow increasing effect: Dose (A) required to obtain AUC = 771: AUC 771 = effect of PGE1 lipid emulsion 5 μg/kg i.v.; for Blood flow increasing effect: Relative activity (X): relative to comparative compound = 1, from Dose (A)", "procedure": "as §1, §2, §3\nThe effectiveness of increasing blood flow was determined by the following method.\nas §4"}}, "data": [{"smiles": "CCCCCCCCCCCCCCCC(=O)OCC(COC(=O)CCCCCCCCCCCCCCC)OC(=O)CCCCCC[C@H]1C(=O)C[C@@H](O)[C@@H]1/C=C/[C@@H](O)CCCCC", "note": "[Comparative compound, PGE1 1,3-bis(palmitoyloxy)-2-propyl ester, reference compound]", "values": [{"measurement": "solubility", "setting": "[1]", "result": "very low"}, {"measurement": "Hypotensive effect: Maximum hypotension on dose (A)", "setting": "blood pressure", "result": 7.1, "unit": "mmHg"}, {"measurement": "Hypotensive effect: Maximum hypotension", "setting": "blood pressure; dose 3 μg/kg", "result": 1, "unit": "mmHg"}, {"measurement": "Hypotensive effect: Maximum hypotension", "setting": "blood pressure; dose 10 μg/kg", "result": 6, "unit": "mmHg"}, {"measurement": "Hypotensive effect: Maximum hypotension", "setting": "blood pressure; dose 30 μg/kg", "result": 8, "unit": "mmHg"}, {"measurement": "Hypotensive effect: Relative activity (X)", "setting": "blood pressure", "result": 1}, {"measurement": "Blood flow increasing effect: Total AUC", "setting": "[2]; dose 3 μg/kg", "result": 350}, {"measurement": "Blood flow increasing effect: Total AUC", "setting": "[2]; dose 10 μg/kg", "result": 710}, {"measurement": "Blood flow increasing effect: Total AUC", "setting": "[2]; dose 30 μg/kg", "result": 830}, {"measurement": "Blood flow increasing effect: Dose (A) required to obtain AUC = 771", "setting": "[2]", "result": 23.6, "unit": "µg/kg"}, {"measurement": "Blood flow increasing effect: Relative activity (X)", "setting": "[2]", "result": 1}]}, {"smiles": "CCCCCCCCCCCC(=O)OCC(COC(=O)CCCCCCCCCCC)OC(=O)CCCCCC[C@H]1C(=O)C[C@@H](O)[C@@H]1/C=C/[C@@H](O)CCCCC", "note": "[Example 1, PGE1 1,3-bis (dodecanoyloxy)-2-propyl ester]", "values": [{"measurement": "Hypotensive effect: Maximum hypotension on dose (A)", "setting": "blood pressure", "result": 2.2, "unit": "mmHg"}, {"measurement": "Hypotensive effect: Maximum hypotension", "setting": "blood pressure; dose 1 μg/kg", "result": 0, "unit": "mmHg"}, {"measurement": "Hypotensive effect: Maximum hypotension", "setting": "blood pressure; dose 3 μg/kg", "result": 1, "unit": "mmHg"}, {"measurement": "Hypotensive effect: Maximum hypotension", "setting": "blood pressure; dose 10 μg/kg", "result": 9, "unit": "mmHg"}, {"measurement": "Hypotensive effect: Relative activity (X)", "setting": "blood pressure", "result": 0.31}, {"measurement": "Blood flow increasing effect: Total AUC", "setting": "[2]; dose 1 μg/kg", "result": 116}, {"measurement": "Blood flow increasing effect: Total AUC", "setting": "[2]; dose 3 μg/kg", "result": 483}, {"measurement": "Blood flow increasing effect: Total AUC", "setting": "[2]; dose 10 μg/kg", "result": 2566}, {"measurement": "Blood flow increasing effect: Dose (A) required to obtain AUC = 771", "setting": "[2]", "result": 3.6, "unit": "µg/kg"}, {"measurement": "Blood flow increasing effect: Relative activity (X)", "setting": "[2]", "result": 6.6}]}, {"smiles": "CCCCCC(=O)OCC(COC(=O)CCCCC)OC(=O)CCCCCC[C@H]1C(=O)C[C@@H](O)[C@@H]1/C=C/[C@@H](O)CCCCC", "note": "[Example 2, PGE1 1,3-bis (hexanoyloxy)-2-propyl ester]", "values": [{"measurement": "Hypotensive effect: Maximum hypotension on dose (A)", "setting": "blood pressure", "result": 6.7, "unit": "mmHg"}, {"measurement": "Hypotensive effect: Maximum hypotension", "setting": "blood pressure; dose 1 μg/kg", "result": 4, "unit": "mmHg"}, {"measurement": "Hypotensive effect: Maximum hypotension", "setting": "blood pressure; dose 3 μg/kg", "result": 9, "unit": "mmHg"}, {"measurement": "Hypotensive effect: Maximum hypotension", "setting": "blood pressure; dose 10 μg/kg", "result": 19, "unit": "mmHg"}, {"measurement": "Hypotensive effect: Relative activity (X)", "setting": "blood pressure", "result": 0.94}, {"measurement": "Blood flow increasing effect: Total AUC", "setting": "[2]; dose 1 μg/kg", "result": 185}, {"measurement": "Blood flow increasing effect: Total AUC", "setting": "[2]; dose 3 μg/kg", "result": 1206}, {"measurement": "Blood flow increasing effect: Total AUC", "setting": "[2]; dose 10 μg/kg", "result": 3919}, {"measurement": "Blood flow increasing effect: Dose (A) required to obtain AUC = 771", "setting": "[2]", "result": 2.2, "unit": "µg/kg"}, {"measurement": "Blood flow increasing effect: Relative activity (X)", "setting": "[2]", "result": 10.7}]}]}
